For assay [1], the target named is T1, recombinant human IDO1 enzyme (Homo sapiens, UniProt P14902).
T1 construct: purchased NTRC NTRC-hIDO-10K
The experiment in a line: In vitro hIDO1 enzyme activity test (NFK Green fluorescence). Type of assay: biochemical. To be noted: recombinant human IDO1, L-tryptophan substrate, pH 6.5, NFK Green readout. How it is done:
Experimental Example 1: In Vitro hIDO1 Enzyme Activity Test
The change of NFK production was detected by using the NFK Green™ fluorescent molecule, which is the metabolite of the IDO1 enzyme, and the IC50 value of the compound was used as an index, to evaluate the inhibitory effect of the compound of formula I on the recombinant human IDO1 enzyme.
The compound of formula I was diluted to 1 mM with DMSO, and then diluted 3-fold in duplicate wells, with 10 gradients. 48 μL of 50 mM phosphate buffer (pH 6.5) was transferred and added to the compound plate via Bravo automated liquid handling platform. 2 μL of the diluted solution of the compound in DMSO was then added thereto and mixed, followed by transferring 10 μL thereof to an enzyme reaction plate.
The IDO1 enzyme was diluted to 20 nM in the reaction buffer (50 mM phosphate buffer (pH 6.5), 0.1% Tween-20, 2% glycerol, 20 mM ascorbic acid, 20 μg/mL catalase and 20 μM methylene blue), 20 μL of which was transferred to an enzyme reaction plate and incubated at 23° C. for 30 min. The reaction was started by adding 10 μL of 400 μM L-tryptophan substrate and incubated at 23° C. for 90 min. 10 μL of NFK Green™ fluorescent dye was added thereto, and the plate was sealed with the microplate sealing film, incubated at 37° C. for 4 h, and then read on Envision Multimode Microplate Reader (Ex 400 nm/Em 510 nm). […]

Assay [2] deals with T2, IDO1 enzyme in Hela cells (Homo sapiens, UniProt P14902).
T2 construct: recombinant human γ-interferon was added to a final concentration of 100 ng/mL to induce IDO1 expression; endogenous in cells; host or cells: Hela cells
T2 sequence (P14902 whole entry): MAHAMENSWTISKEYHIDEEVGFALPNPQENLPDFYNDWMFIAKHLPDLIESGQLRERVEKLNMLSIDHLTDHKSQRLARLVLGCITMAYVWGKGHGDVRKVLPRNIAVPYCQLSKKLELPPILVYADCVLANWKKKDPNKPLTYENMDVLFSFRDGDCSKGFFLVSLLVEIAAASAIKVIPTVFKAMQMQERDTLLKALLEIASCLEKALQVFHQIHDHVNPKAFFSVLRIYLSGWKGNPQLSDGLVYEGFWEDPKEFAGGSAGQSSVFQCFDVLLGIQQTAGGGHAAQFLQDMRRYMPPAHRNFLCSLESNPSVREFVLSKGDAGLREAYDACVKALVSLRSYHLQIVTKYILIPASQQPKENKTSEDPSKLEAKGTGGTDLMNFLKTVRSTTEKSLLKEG
Description: hIDO1 cytological activity assay (kynurenine in Hela cells by LC-MS). The class given is cell-based. The following applies: IDO1 induced with 100 ng/mL recombinant human γ-interferon, 20 h, read-out: hIDO1 Cytological active IC50. How it is done: Experimental Example 2: hIDO1 Cytological Activity Assay
The change of kynurenine in Hela cells was detected by the LC-MS method, and the IC50 value of the compound was used as an index to evaluate the inhibitory effect of the compound of formula I on IDO1 enzyme.
The culture medium, trypsin and DPBS were preheated in a 37° C. water bath. The culture medium for cell culture was sucked out and washed with 10 mL of DPBS; the preheated trypsin was added into the culture flask, and the flask was rotated to allow the trypsin to uniformly cover it, and then placed in a 37° C., 5% CO2 incubator to digest for 1-2 min; in each T150, cells were dispersed with 10-15 mL of the culture medium, centrifuged at 800 rpm for 5 min, and then resuspended with 10 mL of medium; 1 mL of cell suspension was pipetted and cells were counted with Vi-cell; Hela cells were diluted with the culture medium to 5×10^5/mL, 80 μL of the solution was added to a 96-cell plate, and cultured at 37° C. for 5-6 h in a 5% CO2 incubator.
The compound was diluted to 1 mM with DMSO, and then diluted 3-fold in duplicate wells, with 9 gradients. […]
10 μL of recombinant human γ-interferon was added to a final concentration of 100 ng/mL to induce IDO1 expression. […] The content of kynurenine was detected by LC-MS. […]

For orientation: IC50 means the concentration needed to halve the response being measured.

Structures are written as SMILES.

T1 sequence (P14902 whole entry): as above

As for `FC1(F)CCC([C@H]2c3sccc3-c3cncn32)CC1` [Compound of formula I, (S)-8-(4,4-difluorocyclohexyl)-8H-thieno[3,4]pyrrolo[1,5-a]imidazole], the IC50 in assay [1] was 48 nM; in assay [2] it was 74.9 nM.

The values above are taken from patent US11236107B2, “Crystal of tricyclic compound” (Chia Tai Tianqing Pharmaceutical Group Co., Ltd., priority 2017, dated 2022).
